Assay results from patent US4952493A, “Peptide substrates for detecting virus-specified protease activity” (priority 1987, dated 1990).
Values joined by “and” are separate entries in the source; they are usually repeats but may differ in a detail not shown here. Equal entries are not always repeated. Numbered stars: 1 amine (or outer) side, 2 acyl side, 3 side chain; on linkers, the order of the positions; unused ones are H or OH. Peptide text beside a SMILES is read from it. * marks the point of attachment. AMC = Cc1cc(=O)oc2cc(N*)ccc12; Suc = O=C(CCC(=O)[*:2])[*:1]

System: virus-specified protease activity in extracts of Poliovirus Type 2 infected HeLa-O cells
Type: biochemical
Settings: pH 5

For `Cc1cc(=O)oc2cc(NC(=O)[C@H](CCC(N)=O)NC(=O)[C@H](CC(C)C)NC(=O)CNC(=O)[C@H](Cc3ccccc3)NC(=O)CCC(=O)O)ccc12` [Suc-Phe-Gly-Leu-Gln-AMC] (Suc-FGLQ-{AMC}), the “Protease Activity, AMC Substrate” value was 22.5 and 11.4.
